{"source": "patent US20240423215A1", "about": "“COMPOSITION FOR COATING PLANT SEED” (priority 2022, published 2024)", "format_in_all_cases": "in vivo", "key": {"rice": {"test_system": "rice", "experiment": "Cultivation of rice from coated seeds under non-stress conditions (Example 7)", "conditions": "3 weeks after seeding", "method": "Rice seeds (100 g; the variety: Emimaru) were coated with 800 μl of a coating solution containing tryptophan, oxidized glutathione, polyvinyl alcohol, and a coloring dye in water using a coater (SATEC). Coating was performed using either or both of tryptophan in an amount of 0 g, 2.25 g, or 5 g and oxidized glutathione in an amount of 0 g or 75 g per ton of seeds.\nCulture soil was filled into 12-cm vinyl pots, and the coated rice seeds were seeded at 5 grains/pot. Cultivation was performed in a glass greenhouse, and the fresh weight of the aboveground part was inspected 21 days after seeding. The test was repeated 6 times, and the average was determined.\n(§1) The measured fresh weight of the aboveground part of plants in groups each treated with different amounts of tryptophan and oxidized glutathione was indicated as the rate of change (%), relative to the fresh weight of the aboveground part of plants in the test group (control group) treated with a coating solution not containing tryptophan or oxidized glutathione."}, "wheat [1]": {"test_system": "wheat", "experiment": "Cultivation of wheat from coated seeds under low-temperature stress conditions (Example 9)", "conditions": "6 weeks after seeding", "method": "Wheat seeds (100 g; the variety: Yumechikara) were coated with 800 μl of a coating solution containing tryptophan, oxidized glutathione, polyvinyl alcohol, and a coloring dye in water using a coater (SATEC). Coating was performed using either or both of 5 g of tryptophan per MT-seeds and 75 g of oxidized glutathione per MT-seeds. Culture soil was filled into 7.5-cm pots, and the coated wheat seeds were seeded at 1 grain/pot. Cultivation was performed in a glass greenhouse before germination, the germinated plants were transferred to and cultivated in an artificial climate chamber with a diurnal period of 12 hours set at 10° C. and a nocturnal period of 12 hours set at 5° C., and inspection was performed 6 weeks after seeding. The dry weight of the aboveground part and the dry weight of the underground part were measured. The test was repeated 8 times, and the average was determined.\nIn the table, “%” indicates a value calculated relative to the weight without treatment, which is designated as 100%. […] With the use of glutathione in combination with tryptophan, in addition, the dry weight of the aboveground part was increased by 17% and the dry weight of the underground part was increased by 24%, relative to the control group. Such increase was significant. […] As described above, use of glutathione in combination with tryptophan would exert effects of promoting the healthy growth under low-temperature stress conditions."}, "Zea mays [2]": {"test_system": "Zea mays", "experiment": "Cultivation of Zea mays from seeds coated with tryptophan and reduced glutathione under non-stress conditions (Comparative Example 1)", "conditions": "3 weeks after seeding, Trp 0.225 g and/or GSH 1-75 g per MT-seeds, FIG. 14", "procedure": "Dent corn seeds (100 g; the variety: Snow-dent “Otoha”) were coated with 800 μl of a coating solution containing 0.225 g of tryptophan per ton of seeds (i.e., MT-seeds), 0, 1, 5, 15, or 75 g of reduced glutathione per MT-seeds, polyvinyl alcohol, and a coloring dye in water using a coater (SATEC).\nCulture soil was filled into 12-cm vinyl pots, and the coated dent corn seeds were seeded at 4 grains/pot. After germination, a differently grown strain was thinned to retain 3 strains in a pot. Cultivation was performed in a glass greenhouse, and inspection was performed 21 days after seeding. The fresh weight of the aboveground part was measured. The test was repeated 6 times, and the average was determined."}, "Zea mays [3]": {"test_system": "Zea mays", "experiment": "Cultivation of Zea mays from coated seeds under non-stress conditions (Example 1)", "conditions": "3 weeks after seeding", "method": "Dent corn seeds (100 g; the variety: Snow-dent “Otoha”) were coated with 800 μl of a coating solution containing tryptophan, oxidized glutathione, polyvinyl alcohol, and a coloring dye in water using a coater (SATEC). Coating was performed using either or both of tryptophan in an amount of 0 g, 0.045 g, 0.1225 g, 0.45 g, 5 g, or 50 g and oxidized glutathione in an amount of 0 g, 3 g, 15 g, 150 g, or 300 g per ton of seeds.\nCulture soil was filled into 12-cm vinyl pots, and the coated dent corn seeds were seeded at 4 grains/pot. After germination, a differently grown strain was thinned to retain 3 strains in a pot. Cultivation was performed in a glass greenhouse, and inspection was performed 21 days after seeding. The height and the fresh weight of the aboveground part were measured, and the density (the fresh weight of the aboveground part/the height) was determined. The test was repeated 6 times, and the average was determined.\nas §1, with “glutathione. […]” for “glutathione.”"}, "soybean": {"test_system": "soybean", "experiment": "Cultivation of soybean from coated seeds under salt stress conditions (Example 6)", "conditions": "3 weeks after seeding, fresh weight of aboveground part", "method": "Soybean seeds (100 g; the variety: Fukuyutaka) were coated with 800 μl of a coating solution containing tryptophan, oxidized glutathione, polyvinyl alcohol, and a coloring dye in water using a coater (SATEC). Coating was performed using either or both of tryptophan in an amount of 0 g, 0.045 g, 0.225 g, 0.45 g, or 5 g and oxidized glutathione in an amount of 0 g, 15 g, or 75 g per ton of seeds.\nCulture soil containing sodium chloride at 1.0 g/l of the soil was filled into 7.5-cm pots, and the coated soybean seeds were seeded at 1 grain/pot. Cultivation was performed in a glass greenhouse, and inspection was performed 21 days after seeding. The fresh weight of the aboveground part, the density (the fresh weight of the aboveground part/the height), and the dry weight of the underground part were measured. The test was repeated 9 times, and the average was determined.\nas §1, with “glutathione. […]” for “glutathione.”"}, "wheat [4]": {"test_system": "wheat", "experiment": "Cultivation of wheat from coated seeds under salt stress conditions (Example 4)", "conditions": "fresh weight of aboveground part", "method": "Wheat seeds (100 g; the variety: Yumechikara) were coated with 800 μl of a coating solution containing tryptophan, oxidized glutathione, polyvinyl alcohol, and a coloring dye in water using a coater (SATEC). Coating was performed using either or both of tryptophan in an amount of 0 g, 0.225 g, 2.25 g, 5 g, 10 g, or 50 g and oxidized glutathione in an amount of 0 g, 15 g, or 300 g per ton of seeds.\nCulture soil containing sodium chloride at 4.0 g/l of the soil was filled into 7.5-cm pots, and the coated wheat seeds were seeded at 1 grain/pot. Cultivation was performed in a glass greenhouse, and inspection was performed 16 days after seeding. The height and the fresh weight of the aboveground part were measured, and the density (the fresh weight of the aboveground part/the height) was determined. The test was repeated 9 times, and the average was determined.\nas §1, with “glutathione. […]” for “glutathione.”"}, "Zea mays [5]": {"test_system": "Zea mays", "experiment": "Cultivation of Zea mays from seeds coated with tryptophan and reduced glutathione under salt stress conditions (Comparative Example 2)", "conditions": "salt stress (NaCl 6.0 g/l soil); 3 weeks after seeding; Trp 0.225 g and/or GSH 1-75 g per MT-seeds; FIG. 15", "procedure": "Dent corn seeds (100 g; the variety: Snow-dent “Otoha”) were coated with 800 μl of a coating solution containing 0.225 g of tryptophan per MT-seeds, 0, 1, 5, 15, or 75 g of reduced glutathione per MT-seeds, polyvinyl alcohol, and a coloring dye in water using a coater (SATEC).\nCulture soil containing sodium chloride at 6.0 g/l of the soil was filled into 7.5-cm pots, and the coated dent corn seeds were seeded at 1 grain/pot. Cultivation was performed in a glass greenhouse, and inspection was performed 21 days after seeding. The fresh weight of the aboveground part was measured. The test was repeated 9 times, and the average was determined.\nThe fresh weight of the aboveground part measured for the test groups treated with different amounts of tryptophan and reduced glutathione was indicated as the rate of change (%), relative to that of the test group (the control group) treated with a coating solution not containing tryptophan or reduced glutathione."}, "Zea mays [6]": {"test_system": "Zea mays", "experiment": "Cultivation of Zea mays from coated seeds under salt stress conditions (Example 2)", "conditions": "3 weeks after seeding, fresh weight of aboveground part", "method": "Dent corn seeds (100 g; the variety: Snow-dent “Otoha”) were coated with 800 μl of a coating solution containing tryptophan, oxidized glutathione, polyvinyl alcohol, and a coloring dye in water using a coater (SATEC). Coating was performed using either or both of tryptophan in an amount of 0 g, 0.009 g, 0.045 g, 0.1225 g, 0.225 g, 0.45 g, or 5 g and oxidized glutathione in an amount of 0 g, 15 g, or 75 g per ton of seeds.\nCulture soil containing sodium chloride at 6.0 g/l of the soil was filled into 7.5-cm pots, and the coated dent corn seeds were seeded at 1 grain/pot. Cultivation was performed in a glass greenhouse, and inspection was performed 21 days after seeding. The height, the fresh weight of the aboveground part, and the number of leaves were measured, and the density (the fresh weight of the aboveground part/the height) was determined. The test was repeated 9 times, and the average was determined.\nThe rates of changes (%) in the height, the number of leaves, the fresh weight of the aboveground part, and the density (the fresh weight of the aboveground part/the height) measured or determined for the test groups, relative to those of the control group were determined."}, "Zea mays [7]": {"test_system": "Zea mays", "experiment": "Field test of Zea mays, ear yield (Example 8)", "conditions": "0.25 g tryptophan and/or 75 g GSSG per ton of seeds", "method": "As a control group, seeds without coating were prepared.\n• Location: the Wilderen MAR field, the Kingdom of Belgium • Variety: Like IT • Date of seeding: Apr.\nCultivation was performed in accordance with the conventional fertilization management technique and pest management technique, and the yield was inspected. • Inspection of yield: 120 strains/group; the number of repetition: 4"}, "wheat [8]": {"test_system": "wheat", "experiment": "Cultivation of wheat from coated seeds under non-stress conditions (Example 3)", "conditions": "2 weeks after seeding, fresh weight of aboveground part", "method": "Wheat seeds (100 g, Quintus) were coated with 800 μl of a coating solution containing tryptophan, oxidized glutathione, polyvinyl alcohol, and a coloring dye in water using a coater (SATEC). Coating was performed using either or both of tryptophan in an amount of 0 g, 0.01 g, 0.25 g, 5 g, or 10 g and oxidized glutathione in an amount of 0 g, 6 g, or 300 g per ton of seeds.\nCulture soil was filled into a 96-well cell tray, the coated wheat seeds were seeded at 1 grain/cell, and inspection was performed 2 weeks after seeding. The height and the fresh weight of the aboveground part were measured, and the density (the fresh weight of the aboveground part/the height) was determined. Groups each consisting of 6 plants were subjected to the test, and the test was repeated 4 times.\nas §1\nThe density (the fresh weight of the aboveground part/the height) of the test groups was indicated as the rate of change (%), relative to the density of the control group."}, "[9]": {"conditions": "low-temperature stress (10° C./5° C.), Trp 5 g and/or GSSG 75 g per MT-seeds"}, "[10]": {"conditions": "low-temperature stress, Trp 5 g and/or GSSG 75 g per MT-seeds"}}}
{"smiles": "N[C@@H](Cc1c[nH]c2ccccc12)C(=O)O", "note": "[tryptophan, L-tryptophan]", "values": [{"measurement": "effects of promoting the initial growth", "setting": "rice", "value": "Effects of promoting the initial growth were attained to some extent"}, {"measurement": "Dry weight of aboveground part", "setting": "wheat [1]; [9]", "value": 0.24, "unit": "g"}, {"measurement": "Dry weight of underground part", "setting": "wheat [1]; [9]", "value": 0.08, "unit": "g"}, {"measurement": "effects of promoting the initial growth", "setting": "wheat [1]; low-temperature stress", "value": "not observed"}, {"measurement": "Dry weight of aboveground part, relative to without treatment (100%)", "setting": "wheat [1]; [10]", "value": 97, "unit": "%"}, {"measurement": "Dry weight of underground part, relative to without treatment (100%)", "setting": "wheat [1]; [10]", "value": 101, "unit": "%"}, {"measurement": "rate of change in the fresh weight of the aboveground part relative to control group", "setting": "Zea mays [2]", "value": 4, "unit": "%"}, {"measurement": "increase in the fresh weight of the aboveground part compared with no treatment", "setting": "Zea mays [3]; either or both of 0.1225 g tryptophan and 150 g GSSG per ton of seeds", "value": 3, "unit": "%"}, {"measurement": "effects of promoting the initial growth", "setting": "Zea mays [3]; fresh weight of aboveground part", "value": "No effects of promoting the initial growth were attained"}, {"measurement": "effects of promoting the initial growth", "setting": "soybean", "value": "No effects of promoting the initial growth were attained"}, {"measurement": "effects of promoting the initial growth", "setting": "wheat [4]", "value": "No effects of promoting the initial growth were attained"}, {"measurement": "rate of change in the fresh weight of the aboveground part relative to control group", "setting": "Zea mays [5]", "value": 1, "unit": "%"}, {"measurement": "effects of promoting the initial growth", "setting": "Zea mays [6]", "value": "No effects of promoting the initial growth were attained"}, {"measurement": "ear yield relative to the control group without coating (100%)", "setting": "Zea mays [7]; FIG. 16", "value": 100.4, "unit": "%"}, {"measurement": "increase in the ear yield", "setting": "Zea mays [7]; relative to control group", "value": "An increase was not observed in the yield"}, {"measurement": "effects of promoting the initial growth", "setting": "wheat [8]", "value": "No effects of promoting the initial growth were attained"}]}
